# Measurements from US20160082066A1, “Method Use of Polymethoxyflavones (PMFs) in Body Composition Management” (priority 2014, published 2016).
# Key:
# 3T3-L1 preadipocytes [1] = conditions: tissue culture; cited from earlier work
# [2] = test system: high-fat diet-induced obesity in mice; conditions: cited from earlier work
# 3T3-L1 preadipocytes [3] = test: Oil Red O lipid accumulation in differentiating 3T3-L1 preadipocytes; assay type: cell-based; conditions: DMI 2 days, then insulin medium with substance 8 days; absorbance at 520 nm; FIG. 1-3
# Experimental: Ten days after the initiation of differentiation, lipid accumulation was measured by Oil Red O staining.
# 3T3-L1 preadipocytes were incubated with DMI (DMEM with IBMX, DEX and insulin) for two days, and then replaced with DMEM medium containing insulin with or without ECG, EGCG and PMFs at indicated concentrations, respectively for 8 days. The 3T3-L1preadipocytes were stained with Oil Red O and photographed. Lipid content was extracted from Oil Red O stained cells by 2-propanol and quantified with spectrophotometric analysis at 520 nm.
# 3T3-L1 preadipocytes were incubated with DMI (DMEM with IBMX, DEX and insulin) for two days, and then replaced with DMEM medium containing insulin with or without ECG, EGCG and PMFs at indicated concentrations, respectively for 8 days. The 3T3-L1preadipocytes were stained with Oil Red 0. Lipid content was extracted from Oil Red O stained cells by 2-propanol and quantified with spectrophotometric analysis at 520 nm.
# 3T3-L1 preadipocytes were incubated with DMI (DMEM with IBMX, DEX and insulin) for two days, and then replaced with DMEM medium containing insulin with or without Lychee extracts and PMFs, or in combination at indicated concentrations, respectively for 8 days. […] Lipid content was extracted from Oil Red O stained cells by 2-propanol and quantified with spectrophotometric analysis at 520 nm.
# [4] = target: T1, catechol-O-methyltransferase (Homo sapiens, UniProt P21964); conditions: cited from earlier work
# T1 sequence (P21964 1-271): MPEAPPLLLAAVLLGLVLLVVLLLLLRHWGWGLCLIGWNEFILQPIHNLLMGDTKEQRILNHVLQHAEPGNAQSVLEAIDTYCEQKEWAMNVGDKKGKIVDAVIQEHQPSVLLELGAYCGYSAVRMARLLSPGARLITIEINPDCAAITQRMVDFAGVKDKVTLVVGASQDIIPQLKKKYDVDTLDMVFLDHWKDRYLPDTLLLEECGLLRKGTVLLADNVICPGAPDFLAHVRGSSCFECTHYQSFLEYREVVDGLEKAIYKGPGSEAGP
# [5] = EGCG stand alone; young, healthy adults; cited from earlier work
SMILES,differentiation of 3T3-L1 preadipocytes into adipocytes (3T3-L1 preadipocytes [1]),obesity and insulin resistance [2],lipid accumulation in differentiated adipocytes (Oil Red O staining) (3T3-L1 preadipocytes [3]),catechol-O-methyltransferase activity [4],resting metabolic rate (RMR) and thermal effects of feeding (TEF) [5]
COc1ccc(-c2cc(=O)c3c(OC)c(OC)c(OC)c(OC)c3o2)cc1OC [nobiletin],potently suppressing,alleviating obesity and insulin resistance,–,–,–
"O=C(O[C@@H]1Cc2c(O)cc(O)cc2O[C@@H]1c1ccc(O)c(O)c1)c1cc(O)c(O)c(O)c1 [ECG, epicatechin gallates]",–,–,decreased only slightly,–,–
"O=C(O[C@@H]1Cc2c(O)cc(O)cc2O[C@@H]1c1cc(O)c(O)c(O)c1)c1cc(O)c(O)c(O)c1 [EGCG, epigallocatechin gallates]",–,–,decreased only slightly,inhibits,would not increase
